Laboratory results: patent US5616606A, “Oligopeptide antiretroviral agents” (priority 1995, dated 1997)
Like-named read-outs stand apart in the source and are kept apart here.

Columns and labels:
vaccinia virus = format: cell-based; conditions: against vaccinia virus; hydrochloride
[1] = tested on: T4 lymphocytes (CEM cell line); assay: NCI anti-HIV screen, toxicity control in uninfected cells; format: cell-based; conditions: Table X
HIV-1 = conditions: for EC50: Table XI; for INFECTED RESPONSE % of Control: Table X
poly(dA-dT) = assay: ethidium displacement assay, poly(dA-dT); conditions: relative to ethidium 9.5 × 10^6 M^-1, average of repeat measurements
[2] = molecular target: Moloney Leukemia Virus reverse transcriptase (Moloney murine leukemia virus, UniProt P03355); assay: inhibition of MLV associated reverse transcriptase activity; conditions: for ID50 (average ± SD): 50% inhibitory dose after 120 min incubation
[3] = tested on: Moloney murine leukemia virus (MLV); assay: anti-Moloney murine leukemia virus (MLV) plaque test; format: cell-based; conditions: anti-MLV plaque count
SC-1 cells = assay: toxicity TD50 reported with the anti-MLV test; conditions: Table IV

“1-Methyl-4-(1-methyl-4-trimethylammoniumacetamidopyrrole-2-carboxamido)pyr role-2-carboxyamidopriopionamidine chloride hydrochloride [3(B)]” was tested, and the minimum inhibitory concentration (vaccinia virus) was 300 µg/mL.

Work on “1-Methyl-4-(1-methyl-4-trimethylammoniumacetamidopyrrole-2-carboxamido)pyr role-2-carboxyamidopriopionamidine chloride hydrochloride [Example 3(A)]” yielded a minimum inhibitory concentration (vaccinia virus) of 20 µg/mL.

For Cl.Cl.Cn1cc(NC(=O)c2cc(NC(=O)[C@@H]3CC[C@H]3C(=O)Nc3cc(C(=O)Nc4cc(C(=O)NCCC(=N)N)n(C)c4)n(C)c3)cn2C)cc1C(=O)NCCC(=N)N (relative stereo) [Compound 25b, N,N'-di[1-methyl-2-[1-methyl-2-carboxamido(3-propionamidine)-4-pyrrole]-4-pyrrolyl] trans 1,2-cyclobutaneamide dihydrochloride], the “[…] % of Control” value ([1]; dose 2.92 × 10^-4 Molar) was 0.54 % of Control, the “[…] % of Control” value ([1]; dose 2.93 × 10^-5 Molar) was 174.62 % of Control and the “[…] % of Control” value ([1]; dose 2.93 × 10^-6 Molar) was 116.36 % of Control. For the same molecule, the “[…] % of Control” value ([1]; dose 2.94 × 10^-7 Molar) was 90.95 % of Control, the “[…] % of Control” value ([1]; dose 9.25 × 10^-4 Molar) was 8.29 % of Control and the “[…] % of Control” value ([1]; dose 9.27 × 10^-5 Molar) was 101.95 % of Control. The “[…] % of Control” value ([1]; dose 9.29 × 10^-7 Molar) was 102.41 % of Control, the “[…] % of Control” value ([1]; dose 9.38 × 10^-6 Molar) was 145.18 % of Control and the EC50 (HIV-1) was 0.42 µM. The “INFECTED RESPONSE % of Control” value (HIV-1; dose 2.92 × 10^-4 Molar) was 0.04 % of Control, the “INFECTED RESPONSE % of Control” value (HIV-1; dose 2.93 × 10^-5 Molar) was 110.05 % of Control and the “INFECTED RESPONSE % of Control” value (HIV-1; dose 2.93 × 10^-6 Molar) was 77.00 % of Control. The “INFECTED RESPONSE % of Control” value (HIV-1; dose 2.94 × 10^-7 Molar) was 42.92 % of Control, the “INFECTED RESPONSE % of Control” value (HIV-1; dose 9.25 × 10^-4 Molar) was 9.72 % of Control and the “INFECTED RESPONSE % of Control” value (HIV-1; dose 9.27 × 10^-5 Molar) was 90.52 % of Control. For the same molecule, the “INFECTED RESPONSE % of Control” value (HIV-1; dose 9.29 × 10^-7 Molar) was 59.07 % of Control, the “INFECTED RESPONSE % of Control” value (HIV-1; dose 9.38 × 10^-6 Molar) was 80.26 % of Control and the Kapp (poly(dA-dT)) was 5.6e+07 M⁻¹. For the same molecule, the “ID50 (average ± SD)” value [2] was 21.8 ± 9.2 µg/mL.

O=C(O)C1=CC(=C(c2ccc(O)c(C(=O)O)c2)c2ccc(O)c(C(=O)O)c2)C=CC1=O [Aurintricarboxylic acid, reference compound] showed an IC50 [2] of 3.36 µM.

Cl.Cl.Cn1cc(NC(=O)c2cc(NC(=O)[C@@H]3C[C@H]3C(=O)Nc3cc(C(=O)Nc4cc(C(=O)NCCC(=N)N)n(C)c4)n(C)c3)cn2C)cc1C(=O)NCCC(=N)N [Compound 23b, N,N'-Di(1-methyl-2-[1-methyl-2-carboxamide-(3-proprionamidine)-4-pyrrole]-4-pyrrolyl)transcylcopropyldicarboxamide dihydrochloride] was tested, and the EC50 (HIV-1) was 3.44 µM, the “Anti-HIV-1 Activity (National Cancer Institute Designation)” value (HIV-1; inactive, moderate or active) was “Moderate” and the Kapp (poly(dA-dT)) was 5.3e+07 M⁻¹. For the same molecule, the “ID50 (average ± SD)” value [2] was 7.0 ± 3.6 µg/mL.

With Cl.Cl.Cn1cc(NC(=O)c2nc(NC(=O)/C=C\C(=O)Nc3cn(C)c(C(=O)Nc4cn(C)c(C(=O)NCCC(=N)N)n4)n3)cn2C)nc1C(=O)NCCC(=N)N [Compound 39, Bis-Lexitropsin] the “Activity, MIC50” value [3] was greater than 100.00 µg/mL and the “Toxicity, TD50” value (SC-1 cells) was greater than 100.00 ug/mL^-1.
